Measured values as given in patent US20210395239A1 (Hoffmann-La Roche Inc., priority 2018, published 2021).

What was measured:
CYP3A4 = target: T1, CYP3A4 (Homo sapiens, UniProt P08684); experiment: CYP inhibition assay in human liver microsome, CYP3A4; type: in vitro ADME; conditions: substrate midazolam 5 μM, third value of 2C9/2D6/3A4; for inhibition at 5 min, 10 µM: human, human liver microsomes, probe midazolam 5 μM
T1 construct: tissue BD-Gentest 452117; host or cells: human liver microsomes
T1 sequence (P08684 whole entry): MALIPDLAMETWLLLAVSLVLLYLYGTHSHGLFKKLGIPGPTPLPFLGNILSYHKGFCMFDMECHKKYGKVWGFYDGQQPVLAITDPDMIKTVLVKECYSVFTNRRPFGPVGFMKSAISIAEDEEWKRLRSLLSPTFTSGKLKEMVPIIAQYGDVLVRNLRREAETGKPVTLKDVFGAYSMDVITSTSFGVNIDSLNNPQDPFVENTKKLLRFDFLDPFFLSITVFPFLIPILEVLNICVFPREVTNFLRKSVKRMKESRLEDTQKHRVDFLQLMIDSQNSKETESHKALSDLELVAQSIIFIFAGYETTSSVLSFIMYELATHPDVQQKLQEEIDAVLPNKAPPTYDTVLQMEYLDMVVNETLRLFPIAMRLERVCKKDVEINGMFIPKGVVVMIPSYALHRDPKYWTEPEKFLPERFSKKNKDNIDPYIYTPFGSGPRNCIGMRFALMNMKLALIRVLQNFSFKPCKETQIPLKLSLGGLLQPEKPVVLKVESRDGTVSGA
In short: (§1)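 Pooled human liver microsomes with a substrate for each CYP were incubated with compound at 37 °C after NADPH addition, for 5 min (CYP2D6: 10 min), then quenched with acetonitrile containing labelled metabolite standards. Metabolite/internal-standard peak area ratios were measured by RapidFire MS/MS. % inhibition was scaled between DMSO and standard-inhibitor controls.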

CYP2D6 = target: T2, CYP2D6 (Homo sapiens, UniProt P10635); experiment: CYP inhibition assay in human liver microsome, CYP2D6; type: in vitro ADME; conditions: substrate dextromethorphan 5 μM, second value of 2C9/2D6/3A4; for inhibition at 10 min, 10 µM: human, human liver microsomes, probe dextromethorphan 5 μM
T2 construct: tissue BD-Gentest 452117; host or cells: human liver microsomes
T2 sequence (P10635 whole entry): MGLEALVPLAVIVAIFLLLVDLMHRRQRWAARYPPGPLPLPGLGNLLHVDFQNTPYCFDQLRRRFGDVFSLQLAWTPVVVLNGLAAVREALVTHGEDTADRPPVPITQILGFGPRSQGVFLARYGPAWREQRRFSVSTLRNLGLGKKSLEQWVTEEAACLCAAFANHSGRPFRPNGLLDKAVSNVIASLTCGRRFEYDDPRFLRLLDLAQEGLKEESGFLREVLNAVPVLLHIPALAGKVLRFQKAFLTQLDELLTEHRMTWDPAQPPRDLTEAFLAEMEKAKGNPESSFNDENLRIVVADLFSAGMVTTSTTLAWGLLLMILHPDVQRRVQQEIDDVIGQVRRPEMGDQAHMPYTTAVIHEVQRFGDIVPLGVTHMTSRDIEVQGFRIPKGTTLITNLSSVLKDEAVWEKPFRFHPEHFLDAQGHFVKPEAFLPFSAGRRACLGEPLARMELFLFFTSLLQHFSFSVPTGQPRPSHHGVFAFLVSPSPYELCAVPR
In short: as §1

human TLR8 = target: T3, human TLR8 (Homo sapiens, UniProt Q9NR97); experiment: HEK293-Blue-hTLR-8 cells assay (SEAP reporter, R848 stimulation); type: cell-based; conditions: HEK293-Blue-hTLR8 cells, R848, 20 hrs; read-out: HEK/hTLR8 IC50
T3 construct: host or cells: HEK293 (HEK-Blue hTLR8)
T3 sequence (Q9NR97 27-1041): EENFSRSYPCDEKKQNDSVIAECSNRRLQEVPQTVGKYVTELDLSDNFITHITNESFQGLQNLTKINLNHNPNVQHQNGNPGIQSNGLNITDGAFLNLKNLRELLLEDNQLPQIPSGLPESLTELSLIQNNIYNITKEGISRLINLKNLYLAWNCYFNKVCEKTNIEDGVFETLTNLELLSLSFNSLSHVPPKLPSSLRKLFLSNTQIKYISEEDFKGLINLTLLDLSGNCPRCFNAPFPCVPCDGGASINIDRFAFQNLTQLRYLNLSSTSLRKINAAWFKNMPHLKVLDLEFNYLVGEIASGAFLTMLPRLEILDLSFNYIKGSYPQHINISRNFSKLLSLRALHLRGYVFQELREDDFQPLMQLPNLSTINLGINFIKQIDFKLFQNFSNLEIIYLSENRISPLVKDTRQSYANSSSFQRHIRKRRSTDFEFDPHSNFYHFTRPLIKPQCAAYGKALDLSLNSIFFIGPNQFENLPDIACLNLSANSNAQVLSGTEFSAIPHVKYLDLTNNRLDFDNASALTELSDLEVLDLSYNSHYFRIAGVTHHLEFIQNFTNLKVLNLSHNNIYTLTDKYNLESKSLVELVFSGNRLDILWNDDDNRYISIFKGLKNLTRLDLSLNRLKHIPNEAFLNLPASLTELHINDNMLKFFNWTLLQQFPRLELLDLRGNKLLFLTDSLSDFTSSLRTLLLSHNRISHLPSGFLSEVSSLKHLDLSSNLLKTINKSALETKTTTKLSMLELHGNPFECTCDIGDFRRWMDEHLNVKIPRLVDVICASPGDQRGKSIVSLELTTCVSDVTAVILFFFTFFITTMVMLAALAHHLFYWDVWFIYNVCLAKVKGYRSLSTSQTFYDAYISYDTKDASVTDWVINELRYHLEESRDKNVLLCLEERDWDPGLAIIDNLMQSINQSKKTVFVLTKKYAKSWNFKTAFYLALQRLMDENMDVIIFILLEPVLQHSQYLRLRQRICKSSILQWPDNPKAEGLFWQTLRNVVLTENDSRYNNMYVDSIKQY
In short: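 HEK293-Blue-hTLR8 cells (NF-κB/AP-1-driven SEAP) incubated 20 h at 37° C with serially diluted compound (1% DMSO) plus R848 stimulation. Supernatant SEAP measured with QUANTI-Blue, 2 h at 37° C, absorbance 620–655 nm.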

Row | Compound | CYP (%) 3A4 inhibition (CYP3A4) [%] | CYP (%) 2D6 inhibition (CYP2D6) [%] | IC50 (human TLR8) [nM] | inhibition at 5 min, 10 µM (CYP3A4) [%] | inhibition at 10 min, 10 µM (CYP2D6) [%]
1 | CO[C@H]1CN(c2nccc(N3CCN(C[C@H]4CN(c5ccc(C#N)c6ncccc56)C[C@@H](C)O4)CC3)n2)CC1N (stereo in doubt) [Example 53, 5-[(2S,6R)-2-[[4-[2-[(3S,4S)-3-amino-4-methoxy-pyrrolidin-1-yl]pyrimidin-4-yl]piperazin-1-yl]methyl]-6-methyl-morpholin-4-yl]quinoline-8-carbonitrile] | 7.5 | 21.5 | 3 |  | 
2 | C[C@@H]1CN(c2ccc(C#N)c3ncccc23)C[C@H](CN2CCN(c3cncc(N4CCNCC4)c3)CC2)O1 [Example 7, 5-[(2R,6S)-2-methyl-6-[[4-(5-piperazin-1-yl-3-pyridyl)piperazin-1-yl]methyl]morpholin-4-yl]quinoline-8-carbonitrile] |  |  | 9 | 15.5 | 7.5
3 | C[C@@H]1CN(c2ccc(C#N)c3ncccc23)C[C@H](CN2CCN(c3cc(N4CCNCC4)ccn3)CC2)O1 [Example 9, 5-[(2R,6S)-2-methyl-6-[[4-(4-piperazin-1-yl-2-pyridyl)piperazin-1-yl]methyl]morpholin-4-yl]quinoline-8-carbonitrile] |  |  | 3 | 7.5 | 2
4 | C[C@@H]1CN(c2ccc(C#N)c3ncccc23)C[C@H](CN2CCN(c3ccnc(N4CCNCC4)n3)CC2)O1 [Example 15, 5-[(2R,6S)-2-methyl-6-[[4-(2-piperazin-1-ylpyrimidin-4-yl)piperazin-1-yl]methyl]morpholin-4-yl]quinoline-8-carbonitrile] |  |  | 3 | 11.5 | -2.5
5 | C[C@@H]1CN(c2ccc(C#N)c3ncccc23)C[C@H](CN2CCN(c3ccnc(N4CCN(C)CC4)n3)CC2)O1 [Example 22, 5-((2R,6S)-2-methyl-6-((4-(2-(4-methylpiperazin-1-yl)pyrimidin-4-yl)piperazin-1-yl)methyl)morpholino)quinoline-8-carbonitrile] |  |  | 3 | -16 | 2
6 | C[C@@H]1CN(c2ccc(C#N)c3ncccc23)C[C@H](CN2CCN(c3ccnc(N4CCNCC(O)C4)n3)CC2)O1 (stereo partly drawn) [Example 25, 5-[(2S,6R)-2-[[4-[2-(6-hydroxy-1,4-diazepan-1-yl)pyrimidin-4-yl]piperazin-1-yl]methyl]-6-methyl-morpholin-4-yl]quinoline-8-carbonitrile] |  |  | 7 | -4 | 5.5
7 | C[C@@H]1CN(c2ccc(C#N)c3ncccc23)C[C@H](CN2CCN(c3ccnc(N4CCN[C@@H](CO)C4)n3)CC2)O1 [Example 29, 5-[(2S,6R)-2-[[4-[2-[(3R)-3-(hydroxymethyl)piperazin-1-yl]pyrimidin-4-yl]piperazin-1-yl]methyl]-6-methyl-morpholin-4-yl]quinoline-8-carbonitrile] |  |  | 10 | -5.5 | 8.5
8 | COC1CN(c2ccc(N3CCN(C[C@H]4CN(c5ccc(C#N)c6ncccc56)C[C@@H](C)O4)CC3)cn2)CC1N (stereo partly drawn) [Example 43, 5-[(2S,6R)-2-[[4-[6-(3-amino-4-methoxy-pyrrolidin-1-yl)-3-pyridyl]piperazin-1-yl]methyl]-6-methyl-morpholin-4-yl]quinoline-8-carbonitrile] |  |  | 11 | 16 | -11
9 | C[C@@H]1CN(c2ccc(C#N)c3ncccc23)C[C@H](CN2CCN(c3nc(N4CCNCC4)ncc3F)CC2)O1 [Example 45, 5-[(2S,6R)-2-[[4-(5-fluoro-2-piperazin-1-yl-pyrimidin-4-yl)piperazin-1-yl]methyl]-6-methyl-morpholin-4-yl]quinoline-8-carbonitrile] |  |  | 4 | -5 | 5

More lines, in order of falling IC50 (human TLR8), values ahead:

Row | CYP (%) 3A4 inhibition (CYP3A4) [%] | CYP (%) 2D6 inhibition (CYP2D6) [%] | IC50 (human TLR8) [nM] | inhibition at 5 min, 10 µM (CYP3A4) [%] | inhibition at 10 min, 10 µM (CYP2D6) [%] | Compound
10 |  |  | 13 | 11 | 0 | C[C@@H]1CN(c2ccc(C#N)c3ncccc23)C[C@H](CN2CCC(C#N)(c3ccc(N4CCNCC4)cc3)CC2)O1 [Example 11, 5-[(2S,6R)-2-[[4-cyano-4-(4-piperazin-1-ylphenyl)-1-piperidyl]methyl]-6-methyl-morpholin-4-yl]quinoline-8-carbonitrile]
11 |  |  | 12 | 12.5 | 0.5 | C[C@@H]1CN(c2ccc(C#N)c3ncccc23)C[C@H](CN2CCN(c3ccc([C@@H]4CNCCO4)cc3)CC2)O1 [Example 19, 5-[(2R,6S)-2-methyl-6-[[4-[4-[(2R)-morpholin-2-yl]phenyl]piperazin-1-yl]methyl]morpholin-4-yl]quinoline-8-carbonitrile]
12 |  |  | 11 | 4 | 6 | C[C@@H]1CN(c2ccc(C#N)c3ncccc23)C[C@H](CN2CCN(c3ccnc(N[C@H]4CNC[C@H]4F)n3)CC2)O1 [Example 24, 5-[(2S,6R)-2-[[4-[2-[[(3S,4R)-4-fluoropyrrolidin-3-yl]amino]pyrimidin-4-yl]piperazin-1-yl]methyl]-6-methyl-morpholin-4-yl]quinoline-8-carbonitrile]
13 |  |  | 11 | 20 | 20.5 | C[C@@H]1CN(c2ccc(C#N)c3ncccc23)C[C@H](CN2CCN(c3cccc(NC4CNC4)n3)CC2)O1 [Example 38]
14 |  |  | 10 | -3.5 | 6 | C[C@@H]1CN(c2ccc(C#N)c3ncccc23)C[C@H](CN2CCN(c3ccc(N4CCNCC4)cn3)CC2)O1 [Example 8, 5-[(2R,6S)-2-methyl-6-[[4-(5-piperazin-1-yl-2-pyridyl)piperazin-1-yl]methyl]morpholin-4-yl]quinoline-8-carbonitrile]
15 |  |  | 10 | -1.5 | 2.5 | C[C@@H]1CN(c2ccc(C#N)c3ncccc23)C[C@H](CN2CCN(c3cc(N4CCN(C)CC4)ncn3)CC2)O1 [Example 21, 5-[(2R,6S)-2-methyl-6-[[4-[6-(4-methylpiperazin-1-yl)pyrimidin-4-yl]piperazin-1-yl]methyl]morpholin-4-yl]quinoline-8-carbonitrile]
16 | 2 | 10.5 | 3 |  |  | COC1CN(c2nccc(N3CCN(C[C@H]4CN(c5ccc(C#N)c6ncccc56)C[C@@H](C)O4)CC3)n2)C[C@H]1N (stereo in doubt) [Example 52, 5-[(2S,6R)-2-[[4-[2-[(3R,4R)-3-amino-4-methoxy-pyrrolidin-1-yl]pyrimidin-4-yl]piperazin-1-yl]methyl]-6-methyl-morpholin-4-yl]quinoline-8-carbonitrile]
17 |  |  | 3 | -2 | 16.5 | C[C@@H]1CN(c2ccc(C#N)c3ncccc23)C[C@H](CN2CCN(c3nccc(N4CCNCC4)n3)CC2)O1 [Example 14, 5-[(2R,6S)-2-methyl-6-[[4-(4-piperazin-1-ylpyrimidin-2-yl)piperazin-1-yl]methyl]morpholin-4-yl]quinoline-8-carbonitrile]
